“And” between values parts separate entries of the source, which are not always exact repeats. Equal values may be shown once.
Legend:
anti-HAV-negative sera = assay: EIA for anti-HAV: synthetic peptides reacted with anti-HAV-negative sera; assay type: binding, human; settings: experiment 1: sera 1:100, cutoff P/N 3.0
Excerpt: (§1) All anti-HAV-positive and anti-HAV-negative sera were randomly selected from a collection reposited at the Centers for Disease Control and Prevention, Atlanta, Ga. Serum specimens were collected from anti-HAV-positive patients with acute liver disease. Anti-HAV-negative serum specimens were collected from normal blood donors. All sera were initially tested by commercially available kit for the presence of anti-HAV activity (HAVAB and HAVAB-M, Abbott Laboratories, Abbott Park, Ill.)
(§2) Synthetic peptides (110 ml) at a concentration of 10 mg/ml in 0.1 M phosphate-buffered saline (PBS), pH 7.5, were adsorbed to microtiter wells (Immulon II, Dynatech Laboratories, Inc.) at room temperature for 12 h. Sera were diluted in PBS containing 0.1% Tween 20 and 10% normal goat serum (PBS-T) and 100 ml were added to each well, incubated for 60 min at 37E C, and washed with PBS containing Tween-20. […] Two different cutoffs were established for experiments 1 and 2. In experiment 1, the cutoff, expressed as a P/N ratio and equal to 3.0, was statistically established as the mean of negative controls plus at least 3.5 standard deviations (SD) above the mean, where P represents the optical density value at 493 nm (OD493) of anti-HAV-positive specimens and N represents the optical density value of negative controls. In experiment 2, a different cutoff was used to ensure statistical reliability and accurate interpretation of positive results. In this case, in addition to anti-HAV-negative sera, two irrelevant synthetic peptides were used as supplemental negative controls to determine the degree of nonspecific binding of anti-HAV sera to synthetic peptides. One cutoff, expressed as a P/N ratio and equal to 3.0, corresponded to the mean of negative serum controls plus at least 3.5 SD above the mean. A second cutoff was also expressed as a P/N ratio, where P represents the optical density value at 493 nm (OD493) for HAV peptides immunoreacting with anti-HAV-positive specimens and N represents the optical density value obtained with the irrelevant peptides. The second cutoff was equal 2.0 and corresponded to the mean of OD values obtained with the irrelevant peptides plus at least 3.5 SD above the mean. Synthetic peptides were considered immunoreactive with anti-HAV serum specimens only when both cutoffs were satisfied.

anti-HAV-positive sera = assay: EIA for anti-HAV: synthetic peptides adsorbed to wells, reacted with anti-HAV-positive acute sera; assay type: binding, human; settings: for Reactivity with acute sera (reactive/tested): experiment 1: sera 1:100, anti-human IgG-HRP, cutoff P/N 3.0; for Reactivity with acute sera (percent of sera reactive): experiment 1: sera 1:100, cutoff P/N 3.0; for P/N for acute sera (mean) / P/N for acute sera (range, in parentheses): OD493 positive/negative ratio of reactive sera
Excerpt: as §1, §2

Sequence	Reactivity with negative sera (reactive/tested) (anti-HAV-negative sera)	Reactivity with acute sera (reactive/tested) (anti-HAV-positive sera)	Reactivity with acute sera (percent of sera reactive) (anti-HAV-positive sera) [%]	P/N for acute sera (mean) (anti-HAV-positive sera; experiment 1)	P/N for acute sera (range, in parentheses) (anti-HAV-positive sera; experiment 1)	P/N for acute sera (individual values) (anti-HAV-positive sera; experiment 1, single sera listed with semicolon)	immunoreactivity with anti-HAV-positive sera (in words) (anti-HAV-positive sera)	mean P/N ratio with anti-HAV-positive sera (anti-HAV-positive sera)	percent of (IgM) anti-HAV-positive sera immunoreactive with peptide (anti-HAV-positive sera) [%]
CPKDELRPLEKVLESKTRAI [YK-1411]	0/27	8/41	19.5	8.18	(4.65-17.65)	–	–	–	–
FQSFPSGEPSNSKLSGFFQS [YK-1370]	1/27	10/41	24.4	8.05	(3.05-18.48)	–	–	–	–
VKEAIDRRLHFKVEVKPASF [YK-1361]	0/46	5/41	12.2	4.12	(3.21-6.28)	–	–	–	–
FSQAKISLFYTEEHEIMKFS [YK-1319]	2/51	13/48	27.1	3.87	(3.14-5.01)	–	–	–	–
DSAVAEFFQSFPSGEPSNSK [YK-1369]	1/27	24/41	58.5	21.71	(3.8-42.62)	–	–	–	–
GITLKQATTAPCAVMDITGV [YK-1252]	0/46	2/41	4.9	–	–	3.67 and 17.95	–	–	–
TKPVASDYWDGYSGQLVCII [YK-1352]	0/51	8/48	16.7	4.45	(3.38-5.81)	–	–	–	–
MEEKATYVHKKNDGTTVDLT [YK-1388]	0/27	4/41	9.8	4.29	(3.99-4.7)	–	–	–	–
NILKDNQQKIEKAIEEADEF [YK-1341]	1/51	3/48	6.3	5.23	(3.44-8.26)	–	–	–	–
FNASDSVGQQIKVIPVDPYF [YK-1242]	0/46	1/41	2.4	3.1	–	–	Very weakly reactive	–	–
SLIAWQRSNAEFEQNLENAQ [YK-1435]	1/27	6/41	14.6	8.96	(5.16-13.71)	–	–	–	–
SEKTIWSLIAWQRSNAEFEQ [YK-1434]	1/27	11/41	26.8	7.47	(3.85-16.03)	–	–	–	–
QNVPDPQVGITTMKDLKGKA [YK-1266]	0/48	14/46	30.4	8.25	(3.27-18.30)	–	–	–	–
PQLKPVSELTFLKRSFNLVE [YK-1431]	1/27	4/41	9.8	14.13	(3.17-27.53)	–	–	–	–
KNPHNDMLNVNLAKTNDAIK [YK-1363]	0/41	5/41	12.2	5.96	(5.31-6.33)	–	–	–	–
HTYARFGIEIQVQINPTPFQ [YK-1216]	4/46	23/41	56.1	5.3	(3.42-10.79)	–	–	–	–
DRTAVTGASYFTSVDQSSVH [YK-1208]	0/46	5/41	12.2	4.29	(3.27-5.54)	–	–	–	–
SHIECRKPYKELRLEVGKQR [YK-1315]	1/51	26/48	54.2	13.71	(3.1-75.61)	–	–	–	–
SQGISDDDNDSAVAEFFQSF [YK-1368]	1/27	26/41	63.4	9.58	(4.27-19.82)	–	–	–	–
VAKLVTQEMFQNIDKKIESQ [YK-1393]	1/27	24/41	58.5	10.15	(4.64-16.36)	–	very broad and strong antigenic reactivity	10.15	58.5
KNDGTTVDLTVDQAWRGKGE [YK-1389]	0/27	3/41	7.3	10.33	(5.53-18.26)	–	–	–	–
INNVNLYYVFSKIFGKSPVF [YK-1424]	0/27	3/41	7.3	6.69	(3.48-10.83)	–	–	–	–
ITTIEDPVLAKKVPETFPEL [YK-1271]	1/46	4/41	9.8	4.97	(3.33-7.76)	–	–	–	–
FDFQVFPTKYHSGRLLFCFV [YK-1249]	0/48	18/46	39.1	5.03	(3.07-7.03)	–	broadly and strongly immunoreactive	–	–
LGSINQAMVTRCEPVVCYLY [YK-1347]	2/51	13/48	27.1	4.16	(3.18-6.2)	–	–	–	27.1

— patent US6838237B2, “Antigenically reactive regions of the hepatitis a virus polyprotein” (The United States of America as represented by the …, priority 1996, dated 2005)
